Test results reported in patent publication US20250228832A1, “METHODS FOR TREATING DISORDERS AMELIORATED BY MUSCARINIC RECEPTOR ACTIVATION” (KARUNA THERAPEUTICS, INC., priority 2022, published 2025).
Read-outs that look alike come from different tables or passages of the source.

Experiments:
Format in all cases: cell-based
human M1 receptor = target: T1, human M1 receptor (Homo sapiens, UniProt P11229); test: HTRF IP-One curve shift assay, M1
T1 construct: expressed in transfected cells
T1 sequence (P11229 1-460): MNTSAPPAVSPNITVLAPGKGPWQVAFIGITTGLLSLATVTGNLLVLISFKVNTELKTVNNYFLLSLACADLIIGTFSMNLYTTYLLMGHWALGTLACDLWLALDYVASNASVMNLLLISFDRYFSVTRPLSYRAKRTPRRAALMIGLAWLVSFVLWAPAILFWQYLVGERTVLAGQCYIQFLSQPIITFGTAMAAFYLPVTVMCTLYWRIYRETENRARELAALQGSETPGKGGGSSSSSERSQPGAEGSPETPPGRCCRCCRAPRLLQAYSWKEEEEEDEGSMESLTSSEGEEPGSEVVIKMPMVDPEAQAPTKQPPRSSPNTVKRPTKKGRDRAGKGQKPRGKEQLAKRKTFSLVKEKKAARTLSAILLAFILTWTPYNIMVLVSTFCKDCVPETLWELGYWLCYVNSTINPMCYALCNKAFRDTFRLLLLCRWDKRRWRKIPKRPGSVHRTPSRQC
Method: (§1) HTRF IP-One assays were performed using frozen cell aliquots prepared from CHO-K1 cell lines stably expressing human M1, M3, or M5 receptors. Cells were frozen following typical cell freezing protocols. […] Dissociated cells were quenched in full media and collected by centrifugation at 290×g for 5 min. […] 1 mL aliquots of cells were dispensed into cryovial tubes and frozen in a controlled rate cryo-freezer container at −80° C. Cells were stored at −80° C. (or in liquid nitrogen if stored for at least six months) until the day of the assay.
(§2) On the day before the assay, frozen cells were rapidly thawed in a 37° C. water bath, brought up in 20 mL of full media, and collected via centrifugation at 290×g for 5 min. […] Next, […] of cells (10,000 cells/well) were dispensed into 384-well coming plates in triplicate. Cells were incubated overnight in a 37° C., 5% CO2 cell incubator.
(§3) Then, 2 μL of test compounds were added to the cells and incubated for 10 min at 37° C. in a 5% CO2 cell incubator. Next, 2 μL of diluted agonists serially diluted in assay buffer at 7× final assay concentration was added to assay plates. Finally, assay plates were incubated for two hours at 37° C. in a 5% CO2 cell incubator.
(§4) Six μL of IP-1 detection reagents (IP-One Gq HTRF kit, Cisbio Cat #62IPAPEJ) were dispensed to the cells. First, the plates were incubated for two hours at room temperature (IP-One detection reagents were made according to Cisbio protocol). Then, plates were read on an Envision plate reader following the Cisbio guidelines.
(§5) Raw data for all assays was transmitted directly from plate readers into the Beacon database for processing. All assay plates contained positive and negative control wells for data normalization and scaling. […] All control wells contained DMSO at a final assay concentration that matched the test compound wells.
(§6) Counts from the standard curve wells were used to generate a sigmoidal standard curve, which was used to transform the raw counts from each well on the plate (scaling control wells and compound wells) into a pmol/well IP1 value.

human M5 receptor = target: T2, human M5 receptor (Homo sapiens, UniProt P08912); test: HTRF IP-One curve shift assay, M5
T2 construct: expressed in transfected cells
T2 sequence (P08912 1-532): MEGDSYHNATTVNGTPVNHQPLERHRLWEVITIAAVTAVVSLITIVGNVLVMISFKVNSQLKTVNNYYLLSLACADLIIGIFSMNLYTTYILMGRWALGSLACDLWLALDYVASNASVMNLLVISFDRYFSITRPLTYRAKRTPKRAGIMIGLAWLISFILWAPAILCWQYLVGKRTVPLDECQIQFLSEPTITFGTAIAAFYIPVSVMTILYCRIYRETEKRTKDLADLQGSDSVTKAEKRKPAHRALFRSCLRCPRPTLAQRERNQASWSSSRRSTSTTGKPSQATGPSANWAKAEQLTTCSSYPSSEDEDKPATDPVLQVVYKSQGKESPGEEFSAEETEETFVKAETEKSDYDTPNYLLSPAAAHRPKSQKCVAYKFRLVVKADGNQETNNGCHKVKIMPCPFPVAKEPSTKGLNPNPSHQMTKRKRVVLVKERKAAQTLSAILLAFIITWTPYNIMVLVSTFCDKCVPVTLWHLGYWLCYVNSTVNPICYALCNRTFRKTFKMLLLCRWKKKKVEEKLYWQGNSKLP
Method: as §1, §2, §3, §4, §5, §6

human M3 receptor = target: T3, human M3 receptor (Homo sapiens, UniProt P20309); test: HTRF IP-One curve shift assay, M3
T3 construct: expressed in transfected cells
T3 sequence (P20309 whole entry): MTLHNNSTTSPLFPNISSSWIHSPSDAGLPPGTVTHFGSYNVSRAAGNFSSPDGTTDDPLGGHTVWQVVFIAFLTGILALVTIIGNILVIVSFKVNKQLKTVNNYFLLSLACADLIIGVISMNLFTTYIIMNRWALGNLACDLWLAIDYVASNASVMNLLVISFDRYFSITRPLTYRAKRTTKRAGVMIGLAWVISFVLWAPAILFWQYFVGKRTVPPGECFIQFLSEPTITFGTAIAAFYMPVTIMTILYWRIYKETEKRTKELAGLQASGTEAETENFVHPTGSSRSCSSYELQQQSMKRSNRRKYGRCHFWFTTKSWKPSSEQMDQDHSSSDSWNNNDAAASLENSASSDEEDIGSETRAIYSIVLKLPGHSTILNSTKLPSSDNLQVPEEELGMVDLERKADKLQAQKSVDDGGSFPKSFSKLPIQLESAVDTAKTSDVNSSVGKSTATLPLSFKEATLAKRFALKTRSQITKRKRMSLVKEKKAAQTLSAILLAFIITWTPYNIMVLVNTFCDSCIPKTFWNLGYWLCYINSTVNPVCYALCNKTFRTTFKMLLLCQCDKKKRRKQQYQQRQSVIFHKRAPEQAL
Method: as §1, §2, §3, §4, §5, §6

[1] = Emraclidine concentration 41.2 nM, read-out: Emax
[2] = Emraclidine concentration 123 nM, read-out: Emax
[3] = Emraclidine concentration 370 nM
[4] = Emraclidine concentration 1110 nM, read-out: Emax
[5] = Emraclidine concentration 3330 nM, read-out: Emax
[6] = MK-4710 concentration 41.2 nM, read-out: Emax
[7] = MK-4710 concentration 123 nM, read-out: Emax
[8] = MK-4710 concentration 1110 nM, read-out: Emax
[9] = MK-4710 concentration 3330 nM, read-out: Emax
[10] = M5, Emraclidine concentration 0 nM
[11] = M5, Emraclidine concentration 41.2 nM, read-out: Emax
[12] = M5, Emraclidine concentration 123 nM, read-out: Emax
[13] = M5, Emraclidine concentration 370 nM, read-out: Emax
[14] = M5, Emraclidine concentration 1110 nM, read-out: Emax
[15] = M5, Emraclidine concentration 3330 nM, read-out: Emax
[16] = M5, Emraclidine concentration […], read-out: Emax
[17] = M5, MK-4710 concentration 41.2 nM, read-out: Emax
[18] = M5, MK-4710 concentration 123 nM, read-out: Emax
[19] = M5, MK-4710 concentration 370 nM, read-out: Emax
[20] = M5, MK-4710 concentration 1110 nM, read-out: Emax
[21] = M5, MK-4710 concentration 3330 nM, read-out: Emax

CCCCCOc1nsnc1C1=CCCCN1C [KTX-517, 3-(1-methyl-1,4,5,6-tetrahydropyridin-2-yl)-4-(pentyloxy)-1,2,5-thiadiazole]
EC50 (human M1 receptor; Emraclidine concentration 0 nM): 7 nM | Emax (human M1 receptor; Emraclidine concentration 0 nM): 61.6% | Emax (human M1 receptor; [1]): 65.6% | Emax (human M1 receptor; [2]): 66.5% | Emax at […] (human M1 receptor; [3]): 71.3% | Emax (human M1 receptor; [4]): 72.8% | Emax (human M1 receptor; [5]): 79% | Emax at […] (human M1 receptor; Emraclidine concentration […]): 61% | α (cooperativity, affinity shift) (human M1 receptor; M4 PAM Emraclidine): 11.3 | β (cooperativity, efficacy shift) (human M1 receptor; M4 PAM Emraclidine): 2.2 | τ (agonist pharmacology) (human M1 receptor; M4 PAM Emraclidine): 0.0 | α (cooperativity, affinity shift) (human M1 receptor; M4 PAM MK-4710): 3.5 | β (cooperativity, efficacy shift) (human M1 receptor; M4 PAM MK-4710): 0.6 | τ (agonist pharmacology) (human M1 receptor; M4 PAM MK-4710): 0.0 | EC50 (human M1 receptor; MK-4710 concentration 0 nM): 8.4 nM | Emax (human M1 receptor; [6]): 81.5% | Emax (human M1 receptor; [7]): 79.6% | Emax at […] (human M1 receptor; MK-4710 concentration 370 nM): 80.9% | Emax (human M1 receptor; [8]): 86.1% | Emax (human M1 receptor; [9]): 85.8% | Emax at […] (human M1 receptor; MK-4710 concentration […]): 77.8% | EC50 (human M5 receptor; [10]): 121 nM | Emax (human M5 receptor; [10]): 41.68% | EC50 (human M5 receptor; M5, Emraclidine concentration 41.2 nM): 110 nM | Emax (human M5 receptor; [11]): 45.4% | EC50 (human M5 receptor; M5, Emraclidine concentration 123 nM): 118 nM | Emax (human M5 receptor; [12]): 62.7% | EC50 (human M5 receptor; M5, Emraclidine concentration 370 nM): 161 nM | Emax at […] (human M5 receptor; [13]): 62.4% | EC50 (human M5 receptor; M5, Emraclidine concentration 1110 nM): 243 nM | Emax (human M5 receptor; [14]): 69.3% | EC50 (human M5 receptor; M5, Emraclidine concentration 3330 nM): 153 nM | Emax (human M5 receptor; [15]): 72% | EC50 (human M5 receptor; M5, Emraclidine concentration […]): 111 nM | Emax at […] (human M5 receptor; [16]): 44.1% | α (cooperativity, affinity shift) (human M5 receptor; M5, M4 PAM Emraclidine): 1.0 | β (cooperativity, efficacy shift) (human M5 receptor; M5, M4 PAM Emraclidine): 4.5 | τ (agonist pharmacology) (human M5 receptor; M5, M4 PAM Emraclidine): 0.1 | α (cooperativity, affinity shift) (human M5 receptor; M5, M4 PAM MK-4710): 2.2 | β (cooperativity, efficacy shift) (human M5 receptor; M5, M4 PAM MK-4710): 1.9 | τ (agonist pharmacology) (human M5 receptor; M5, M4 PAM MK-4710): 0.0 | EC50 (human M5 receptor; M5, MK-4710 concentration 0 nM): 168 nM | Emax (human M5 receptor; M5, MK-4710 concentration 0 nM): 53.95% | Emax (human M5 receptor; [17]): 62.5% | Emax (human M5 receptor; [18]): 65.7% | Emax at […] (human M5 receptor; [19]): 68% | Emax (human M5 receptor; [20]): 69.6% | Emax (human M5 receptor; [21]): 82.2% | Emax at […] (human M5 receptor; M5, MK-4710 concentration […], read-out: Emax): 54.9% | EC50 (human M3 receptor; Emraclidine concentration 0 nM): 24.4 nM | Emax (human M3 receptor; Emraclidine concentration 0 nM): 42.7% | Emax (human M3 receptor; [1]): 45.3% | Emax (human M3 receptor; [2]): 50.2% | Emax at […] (human M3 receptor; [3]): 52.1% | Emax (human M3 receptor; [4]): 54.8% | Emax (human M3 receptor; [5]): 59.6% | Emax at […] (human M3 receptor; Emraclidine concentration […]): 43% | α (cooperativity, affinity shift) (human M3 receptor; M4 PAM Emraclidine): 1.0 | β (cooperativity, efficacy shift) (human M3 receptor; M4 PAM Emraclidine): 2.8 | τ (agonist pharmacology) (human M3 receptor; M4 PAM Emraclidine): 0.0 | α (cooperativity, affinity shift) (human M3 receptor; M4 PAM MK-4710): 7.7 | β (cooperativity, efficacy shift) (human M3 receptor; M4 PAM MK-4710): 1.1 | τ (agonist pharmacology) (human M3 receptor; M4 PAM MK-4710): 0.0 | EC50 (human M3 receptor; MK-4710 concentration 0 nM): 33.8 nM | Emax (human M3 receptor; MK-4710 concentration 0 nM): 46.7% | Emax (human M3 receptor; [6]): 49.5% | Emax (human M3 receptor; [7]): 48.3% | Emax at […] (human M3 receptor; MK-4710 concentration 370 nM): 53.4% | Emax (human M3 receptor; [8]): 51.1% | Emax (human M3 receptor; [9]): 64.4% | Emax at […] (human M3 receptor; MK-4710 concentration […]): 45.6%

CCCCCCOc1nsnc1C1=CCCN(C)C1 [xanomeline, reference compound]
Emax at […] (human M5 receptor): 80% | Emax (human M5 receptor; [10]): 81.14% | Emax (human M5 receptor; [11]): 78.5% | Emax (human M5 receptor; [12]): 84.2% | Emax at […] (human M5 receptor; [13]): 89% | Emax (human M5 receptor; [14]): 81.9% | Emax (human M5 receptor; [15]): 79.5% | Emax at […] (human M5 receptor; [16]): 79.4% | τ (agonist pharmacology) (human M5 receptor; M5, M4 PAM Emraclidine): 0.1 | τ (agonist pharmacology) (human M5 receptor; M5, M4 PAM MK-4710): 0.0 | Emax (human M5 receptor; M5, MK-4710 concentration 0 nM): 77.91% | Emax (human M5 receptor; [17]): 87% | Emax (human M5 receptor; [18]): 86.9% | Emax at […] (human M5 receptor; [19]): 92.9% | Emax (human M5 receptor; [20]): 78.6% | Emax (human M5 receptor; [21]): 83% | EC50 (human M3 receptor; Emraclidine concentration 0 nM): 155 nM | Emax (human M3 receptor; Emraclidine concentration 0 nM): 77.3% | Emax (human M3 receptor; [1]): 81.9% | Emax (human M3 receptor; [2]): 85.7% | Emax at […] (human M3 receptor; [3]): 91.6% | Emax (human M3 receptor; [4]): 89.1% | Emax (human M3 receptor; [5]): 80.3% | Emax at […] (human M3 receptor; Emraclidine concentration […]): 74.5% | τ (agonist pharmacology) (human M3 receptor; M4 PAM Emraclidine): 0.1 | τ (agonist pharmacology) (human M3 receptor; M4 PAM MK-4710): 0.1 | EC50 (human M3 receptor; MK-4710 concentration 0 nM): 147 nM | Emax (human M3 receptor; MK-4710 concentration 0 nM): 84.2% | Emax (human M3 receptor; [6]): 94.3% | Emax (human M3 receptor; [7]): 90.3% | Emax at […] (human M3 receptor; MK-4710 concentration 370 nM): 88.9% | Emax (human M3 receptor; [8]): 81% | Emax (human M3 receptor; [9]): 81.8% | Emax at […] (human M3 receptor; MK-4710 concentration […]): 81.5%
